Source: patent US10689383B2, “Optionally fused heterocyclyl-substituted derivatives of pyrimidine useful for the treatment of inflammatory, metabolic, oncologic and autoimmune diseases” (NUEVOLUTION A/S, priority 2014, dated 2020)

Assays:
[1] = target: T1, yeast Gal4-DNA binding domain fused to the ligand binding domain of human RORγ (Homo sapiens, UniProt P51449); test: RORγ Reporter Assay (Gal4); type: cell-based; conditions: values given as lower bounds of ranges; for Gal4 activity range @ 1 μM (% inhibition): RORγ Reporter Assay (Gal4) at 1 μM; for Gal4 activity range @ 0.1 μM (% inhibition): RORγ Reporter Assay (Gal4) at 0.1 μM
T1 construct: host or cells: HEK293t
T1 sequence (P51449 269-508 limits assumed): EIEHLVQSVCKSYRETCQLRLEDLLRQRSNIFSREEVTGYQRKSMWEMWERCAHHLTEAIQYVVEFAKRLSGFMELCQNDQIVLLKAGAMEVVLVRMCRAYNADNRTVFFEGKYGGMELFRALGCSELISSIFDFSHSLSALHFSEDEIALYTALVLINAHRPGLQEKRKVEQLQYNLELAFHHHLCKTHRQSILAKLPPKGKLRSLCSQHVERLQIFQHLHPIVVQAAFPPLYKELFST
Procedure: The activity of the compounds was evaluated using a Fluorescence Polarization (FP) Assay and, in most cases, a Th17 Assay and/or RORγ Reporter assay (also referred to as Gal4 assay). The FP assay is an in vitro assay monitoring binding within the ligand binding pocket. The RORγ and the Th17 assays are both cell-based assays monitoring functional activity of the compound assayed.
Cell-based RORγ functional assays were performed using a commercially available assay product (INDIGO Biosciences, State College, Pa., USA; product # IB04001). The RORγ reporter cells are HEK293t cells transfected with one vector that provides high level constitutive expression of a hybrid protein comprised of the yeast Gal4-DNA binding domain fused to the ligand binding domain of human RORγ, and a second vector comprising the firefly luciferase cDNA functionally linked to the upstream activation sequence (UAS) of yeast Gal4. A suspension of RORγ Reporter Cells was prepared using the protocol and culture medium provided in the kit product, and 100 μl of the Reporter Cell suspension was then dispensed into wells of a white, collagen-treated, 96-well assay plate. Concentrated stocks of test compounds were prepared in DMSO, then further diluted using media provided in the kit to generate ‘2×-concentration’ treatment media. 100 μl of medium for each respective treatment concentration dispensed into triplicate assay wells, thereby combining with the reporter cells. All media formulations contained 10% charcoal stripped Fetal Bovine Serum, but are otherwise proprietary to INDIGO Biosciences. Final treatment concentrations for each test compound were 1,000 nM and 100 nM, each with 0.1% residual DMSO. Separate control treatments were media supplemented with vehicle only (0.1% DMSO) to determine the constitutive level of RORγ activity in the reporter cells, and the reference inverse-agonist ursolic acid (f.c. 6,000 nM to 8.2 nM in 3-fold decrements) to establish a positive control inverse-agonist dose response. Assay plates were placed in a 37° C., 5% CO2, 85% humidity incubator for 24 hour. Treatment media were then discarded, 100 μl of luciferase detection reagent was added to each well, and relative light units (RLUs) were quantified from each assay well using a plate reading luminometer. Values of average RLU+/−standard deviation were computed for all treatment sets, followed by the calculations of fold-reduction: [Average RLUVehicle/Average RLUTest Cmpd]. Percent-reduction of RORγ activity in response to respective test compound treatments was calculated: [100*(1−[Ave RLUTest Cmpd/Ave RLUVehicle)] where the theoretical minimum reduction (0% reduction) derives from Vehicle treatment only, no treatment compound.

[2] = target: T2, human RORγt (Ligand Binding Domain) (Homo sapiens, UniProt P51449); test: Fluorescence Polarization (FP) Assay; conditions: Fluorescence Polarization (FP) Assay; values given as upper bounds of activity ranges; read-out: FP activity range
T2 construct: purchased Crelux (Planegg, Germany) batch no PC5032-1
T2 sequence (P51449 269-508 limits assumed): T1 sequence (P51449 269-508 limits assumed)
Outline: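 Binding to the ligand pocket followed by fluorescence polarization with a TAMRA-tagged RORγt ligand probe of 910 g/mole. Negative control wells received DMSO only.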

Row | SMILES | Gal4 activity range @ 1 μM (% inhibition) [1] | IC50 [2] | Gal4 activity range @ 0.1 μM (% inhibition) [1]
1 | CC(C)(C)C[C@@H](Nc1ncnc(N2CCCC2c2ccc(C(F)(F)F)cc2)c1F)C1CNCCO1 (stereo partly drawn) [Example 64, N-[(1R)-3,3-dimethyl-1-morpholin-2-yl-butyl]-5-fluoro-6-[2-[4-(trifluoromethyl)phenyl]pyrrolidin-1-yl]pyrimidin-4-amine] | >20 % inhibition | < 2000 nM | 
2 | COc1cc(C(F)(F)F)ccc1C1CCCN1c1ncnc(N[C@H](CC(C)(C)C)C(N)=O)c1F (stereo partly drawn) [Example 65, (2R)-2-[[5-fluoro-6-[2-[2-methoxy-4-(trifluoromethyl)phenyl]pyrrolidin-1-yl]pyrimidin-4-yl]amino]-4,4-dimethyl-pentanamide] | >20 % inhibition | < 500 nM | 
3 | Cc1ccc(CNc2nccc(N3CCCC3c3ccc(C(F)(F)F)cc3)c2F)cn1 (stereo not drawn) [Example 66, 3-fluoro-N-[(6-methyl-3-pyridyl)methyl]-4-[2-[4-(trifluoromethyl)phenyl]pyrrolidin-1-yl]pyridin-2-amine] | >50 % inhibition | < 2000 nM | 
4 | CC(C)(C)C[C@@H](Nc1ncnc(N2CCOCC2c2ccc(OC(F)(F)F)cc2)c1F)C(N)=O (stereo partly drawn) [Example 68, (2R)-2-[[5-fluoro-6-[3-[4-(trifluoromethoxy)phenyl]morpholin-4-yl]pyrimidin-4-yl]amino]-4,4-dimethyl-pentanamide] | >80 % inhibition | < 2000 nM | 
5 | COc1ccc(Cn2ccc3c(N4CCCC4c4ccc(C(F)(F)F)cc4)ncnc32)cc1OC (stereo not drawn) [Example 69, 7-[(3,4-dimethoxyphenyl)methyl]-4-[2-[4-(trifluoromethyl)phenyl]pyrrolidin-1-yl]pyrrolo[2,3-d]pyrimidine] | >50 % inhibition | < 1000 nM | 
6 | CC(C)(C)C[C@@H](Nc1ncnc(N2CCCC2c2ccc(C(F)(F)F)c(F)c2)c1F)C(N)=O (stereo partly drawn) [Example 72, (2R)-2-[[5-fluoro-6-[2-[3-fluoro-4-(trifluoromethyl)phenyl]pyrrolidin-1-yl]pyrimidin-4-yl]amino]-4,4-dimethyl-pentanamide] | >80 % inhibition | < 1000 nM | 
7 | Cc1ccc(COc2ncnc(N3CCCC3c3ccc(C(F)(F)F)c(F)c3)c2F)cn1 (stereo not drawn) [Example 73, 5-fluoro-4-[2-[3-fluoro-4-(trifluoromethyl)phenyl]pyrrolidin-1-yl]-6-[(6-methyl-3-pyridyl)methoxy]pyrimidine] | >20 % inhibition | < 2000 nM | >0 % inhibition
8 | Cc1ccc(COc2ncnc(N3CCCC3c3ccc(C(F)(F)F)cc3)c2F)cn1 (stereo not drawn) [Example 74, 5-fluoro-4-[(6-methyl-3-pyridyl)methoxy]-6-[2-[4-(trifluoromethyl)phenyl]pyrrolidin-1-yl]pyrimidine] | >80 % inhibition | < 2000 nM | 
9 | COc1ccc(C2CCCN2c2ncnc(NCc3ccc(C)nc3)c2F)cc1 (stereo not drawn) [Example 90, 5-fluoro-6-[2-(4-methoxyphenyl)pyrrolidin-1-yl]-N-[(6-methyl-3-pyridyl)methyl]pyrimidin-4-amine] | >20 % inhibition | < 1000 nM | >0 % inhibition
10 | CC1CCC(CNc2ncnc(N3CCCC3c3ccc(C(F)(F)F)cc3)c2F)CC1 (stereo not drawn) [Example 93, 5-fluoro-N-[(4-methylcyclohexyl)methyl]-6-[2-[4-(trifluoromethyl)phenyl]pyrrolidin-1-yl]pyrimidin-4-amine] | >50 % inhibition | < 500 nM | >0 % inhibition
11 | CS(=O)(=O)Cc1ccc(CNc2ncnc(N3CCCC3c3ccc(C(F)(F)F)cc3)c2F)cc1 (stereo not drawn) [Example 95, 5-fluoro-N-[[4-(methylsulfonylmethyl)phenyl]methyl]-6-[2-[4-(trifluoromethyl)phenyl]pyrrolidin-1-yl]pyrimidin-4-amine] | >80 % inhibition | < 1000 nM | >20 % inhibition
12 | Cc1ccc(CNc2ncnc(N3CCCC3c3ccc(OC(F)(F)F)cc3)c2F)cn1 (stereo not drawn) [Example 97, 5-fluoro-N-[(6-methyl-3-pyridyl)methyl]-6-[2-[4-(trifluoromethoxy)phenyl]pyrrolidin-1-yl]pyrimidin-4-amine] | >80 % inhibition | < 1000 nM | >20 % inhibition
13 | CC(C)(O)Cc1ccc(CNc2ncnc(N3CCCC3c3ccc(C(F)(F)F)cc3)c2F)cc1 (stereo not drawn) [Example 98, 1-[4-[[[5-fluoro-6-[2-[4-(trifluoromethyl)phenyl]pyrrolidin-1-yl]pyrimidin-4-yl]amino]methyl]phenyl]-2-methyl-propan-2-ol] | >80 % inhibition | < 1000 nM | >20 % inhibition
14 | Oc1ccc(CNc2ncnc(N3CCCC3c3ccc(C(F)(F)F)cc3)c2F)cn1 (stereo not drawn) [Example 100, 5-[[[5-fluoro-6-[2-[4-(trifluoromethyl)phenyl]pyrrolidin-1-yl]pyrimidin-4-yl]amino]methyl]pyridin-2-ol] | >20 % inhibition | < 2000 nM | 
15 | Cn1cc(CNc2ncnc(N3CCCC3c3ccc(C(F)(F)F)cc3)c2F)cn1 (stereo not drawn) [Example 106, 5-fluoro-N-[(1-methylpyrazo1-4-yl)methyl]-6-[2-[4-(trifluoromethyl)phenyl]pyrrolidin-1-yl]pyrimidin-4-amine] | >20 % inhibition | < 10000 nM | 
16 | Cc1ccc(CNc2ncnc(N3CCCC3c3ccc(C(F)(F)F)cc3)c2F)o1 (stereo not drawn) [Example 107, 5-fluoro-N-[(5-methyl-2-furyl)methyl]-6-[2-[4-(trifluoromethyl)phenyl]pyrrolidin-1-yl]pyrimidin-4-amine] | >0 % inhibition | < 10000 nM | 
17 | CN1CC(CNc2ncnc(N3CCCC3c3ccc(C(F)(F)F)cc3)c2F)CC1=O (stereo not drawn) [Example 109, 4-[[[5-fluoro-6-[2-[4-(trifluoromethyl)phenyl]pyrrolidin-1-yl]pyrimidin-4-yl]amino]methyl]-1-methyl-pyrrolidin-2-one] | >20 % inhibition | < 2000 nM | 
18 | CN(C)C(=O)C1CCC(CNc2ncnc(N3CCCC3c3ccc(C(F)(F)F)cc3)c2F)O1 (stereo not drawn) [Example 110, 5-[[[5-fluoro-6-[2-[4-(trifluoromethyl)phenyl]pyrrolidin-1-yl]pyrimidin-4-yl]amino]methyl]-N,N-dimethyl-tetrahydrofuran-2-carboxamide] | >0 % inhibition | < 10000 nM | 
19 | COC1(CNc2ncnc(N3CCCC3c3ccc(C(F)(F)F)cc3)c2F)CCOCC1 (stereo not drawn) [Example 111, 5-fluoro-N-[(4-methoxytetrahydropyran-4-yl)methyl]-6-[2-[4-(trifluoromethyl)phenyl]pyrrolidin-1-yl]pyrimidin-4-amine] | >80 % inhibition | < 500 nM | >50 % inhibition
